Results published in ChEMBL document CHEMBL1146403, “Three new cryptophycins from Nostoc sp. GSV 224” (J Nat Prod, 1997).

Assays:
Type in all cases: functional, cell-based
SK-OV-3 = experiment: Cytotoxicity against human SKOV3 cells
LoVo = experiment: Cytotoxicity against human LoVo cells
KB = experiment: Cytotoxicity against human KB cells

Compound	IC50 (SK-OV-3) [nM]	IC50 (LoVo) [nM]	IC50 (KB) [nM]
COc1ccc(C[C@H]2NC(=O)/C=C/C[C@@H]([C@H](C)/C=C/c3ccccc3)OC(=O)[C@H](CC(C)C)OC(=O)[C@H](C)CNC2=O)cc1Cl [CRYPTOPHYCIN 3]	1.9	1.9	1.9
COc1ccc(C[C@@H]2NC(=O)/C=C/C[C@@H]([C@H](C)/C=C/c3ccccc3)OC(=O)[C@H](CC(C)C)OC(=O)[C@H](C)CNC2=O)cc1Cl [CRYPTOPHYCIN 46]	750	750	750
COc1c(Cl)cc(C[C@H]2NC(=O)/C=C/C[C@@H]([C@H](C)/C=C/c3ccccc3)OC(=O)[C@H](CC(C)C)OC(=O)[C@H](C)CNC2=O)cc1Cl [CRYPTOPHYCIN 175]	100	100	100
CC(C)C[C@@H]1OC(=O)CCNC(=O)[C@@H](Cc2ccc(O)c(Cl)c2)NC(=O)/C=C/C[C@@H]([C@H](C)[C@H]2O[C@@H]2c2ccccc2)OC1=O [CRYPTOPHYCIN 176]	1.3	1.3	1.3
COc1ccc(C[C@H]2NC(=O)/C=C/C[C@@H]([C@H](C)[C@H]3O[C@@H]3c3ccccc3)OC(=O)[C@H](CC(C)C)OC(=O)[C@H](C)CNC2=O)cc1Cl [CRYPTOPHYCIN A]	0.0092	0.0092	0.0092
